# Calls of active or inactive are those of the source. The rule behind the calls is not given here.
# Assays:
# L02 [1] = assay: Upregulation of NQO-1 expression in human L02 cells harboring Nrf2 siRNA at 10 uM measured after 10 hrs by Western blot analysis; type: functional, cell-based
# [2] = biological target: T1, Nuclear factor erythroid 2-related factor 2 (Homo sapiens) (UniProt Q16236); assay: Activation of Nrf2 in human L02 cells assessed as increase in HO-1 expression measured after 12 hrs by Western blot analysis; type: cell-based
# T1 sequence (whole entry): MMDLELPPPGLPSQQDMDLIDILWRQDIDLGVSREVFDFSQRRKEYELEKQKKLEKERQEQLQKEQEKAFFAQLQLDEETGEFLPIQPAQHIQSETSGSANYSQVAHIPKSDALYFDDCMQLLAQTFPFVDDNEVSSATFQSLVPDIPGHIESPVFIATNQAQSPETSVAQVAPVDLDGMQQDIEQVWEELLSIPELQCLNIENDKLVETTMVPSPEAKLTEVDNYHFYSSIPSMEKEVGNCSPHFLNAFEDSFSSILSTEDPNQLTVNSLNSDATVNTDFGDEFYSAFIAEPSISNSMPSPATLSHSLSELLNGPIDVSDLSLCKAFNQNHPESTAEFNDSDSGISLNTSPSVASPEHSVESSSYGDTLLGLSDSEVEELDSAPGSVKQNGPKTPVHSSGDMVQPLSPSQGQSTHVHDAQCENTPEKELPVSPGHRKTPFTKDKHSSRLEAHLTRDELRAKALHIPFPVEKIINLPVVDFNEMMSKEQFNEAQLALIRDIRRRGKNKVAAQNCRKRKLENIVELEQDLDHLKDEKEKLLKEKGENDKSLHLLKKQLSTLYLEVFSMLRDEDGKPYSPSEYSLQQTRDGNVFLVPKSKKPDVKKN
# [3] = biological target: T1, Nuclear factor erythroid 2-related factor 2 (Homo sapiens); assay: Activation of Nrf2 in human L02 cells assessed as increase in GCLM expression at 10 uM measured after 4 to 72 hrs hrs by Western blot analysis; type: cell-based
# [4] = biological target: T1, Nuclear factor erythroid 2-related factor 2 (Homo sapiens); assay: Activation of Nrf2 in human L02 cells assessed as increase in HO-1 expression at 10 uM measured after 4 to 72 hrs hrs by Western blot analysis; type: cell-based
# Mus musculus [5] = assay: Protection against APAP-induced hepatotoxicity in C57BL/6 mouse assessed as decrease in MPO activity in liver at 10 to 40 mg/kg, ip treated 2 hrs prior to 22 hrs starvation followed by APAP challenge and measured after 6 hrs; type: functional, organism-based
# Mus musculus [6] = assay: Protection against APAP-induced hepatotoxicity in C57BL/6 mouse assessed as decrease in liver lymphocytes infiltration at 10 to 40 mg/kg, ip treated 2 hrs prior to 22 hrs starvation followed by APAP challenge and measured after 6 hrs by H and E staining-based light microscopic analysis; type: functional, organism-based
# L02 [7] = assay: Cytoprotective activity against APAP-induced hepatotoxicity in human L02 cells harboring Nrf2 siRNA assessed as increase in cell viability at 5 to 10 uM preincubated for 12 hrs followed by APAP addition and measured after 24 hrs by MTT assay; type: functional, cell-based
# L02 [8] = assay: Cytotoxicity against human L02 cells assessed as reduction in cell viability up to 100 uM measured after 48 hrs by MTT assay; type: cell-based; conditions: l02, 48 h
# Mus musculus [9] = assay: Protection against APAP-induced hepatotoxicity in C57BL/6 mouse assessed as decrease in alpha-SMA expression in liver at 10 to 40 mg/kg, ip treated 2 hrs prior to 22 hrs starvation followed by APAP challenge and measured after 6 hrs by Dako/Mayer's hematoxylin staining-based immunohistochemical analysis; type: functional, organism-based
# [10] = biological target: T1, Nuclear factor erythroid 2-related factor 2 (Homo sapiens); assay: Activation of Nrf2 in human L02 cells assessed as increase in NEFL2L expression measured after 12 hrs by Western blot analysis; type: cell-based
# Mus musculus [11] = assay: Protection against APAP-induced hepatotoxicity in C57BL/6 mouse assessed as destruction of liver structure at 10 to 40 mg/kg, ip treated 2 hrs prior to 22 hrs starvation followed by APAP challenge and measured after 6 hrs by H and E staining-based light microscopic analysis; type: functional, organism-based
# L02 [12] = assay: Upregulation of GCLM expression in human L02 cells harboring Nrf2 siRNA at 10 uM measured after 10 hrs by Western blot analysis; type: functional, cell-based
# L02 [13] = assay: Cytoprotective activity against APAP-induced oxidative stress in human L02 cells assessed as decrease in MDA activity at 5 to 10 uM preincubated for 12 hrs followed by APAP stimulation and measured after 24 hrs; type: functional, cell-based
# Mus musculus [14] = assay: Protection against APAP-induced hepatotoxicity in C57BL/6 mouse assessed as decrease in IL6 production at 10 mg/kg, ip treated 2 hrs prior to 22 hrs starvation followed by APAP challenge and measured after 6 hrs; type: functional, organism-based
# Mus musculus [15] = assay: Protection against APAP-induced hepatotoxicity in C57BL/6 mouse assessed as decrease in TNFalpha production at 10 mg/kg, ip treated 2 hrs prior to 22 hrs starvation followed by APAP challenge and measured after 6 hrs; type: functional, organism-based
# [16] = biological target: T1, Nuclear factor erythroid 2-related factor 2 (Homo sapiens); assay: Activation of Nrf2 in human L02 cells harboring control siRNA assessed as increase in GCLM expression at 10 uM measured after 10 hrs by Western blot analysis; type: cell-based
# Mus musculus [17] = assay: Protection against APAP-induced hepatotoxicity in C57BL/6 mouse assessed as decrease in NQO1 expression in liver at 10 to 40 mg/kg, ip treated 2 hrs prior to 22 hrs starvation followed by APAP challenge and measured after 6 hrs by Dako/Mayer's hematoxylin staining-based immunohistochemical analysis; type: functional, organism-based
# [18] = biological target: T1, Nuclear factor erythroid 2-related factor 2 (Homo sapiens); assay: Activation of Nrf2 in human L02 cells assessed as increase in GCLM mRNA expression at 10 uM measured after 8 to 24 hrs by trizol reagent based qRT-PCR analysis; type: cell-based
# L02 [19] = assay: Cytoprotective activity against APAP-induced oxidative stress in human L02 cells assessed as decrease in ALT level at 5 to 10 uM preincubated for 12 hrs followed by APAP stimulation and measured after 24 hrs; type: functional, cell-based
# [20] = biological target: T1, Nuclear factor erythroid 2-related factor 2 (Homo sapiens); assay: Activation of Nrf2 in human L02 cells assessed as increase in NQO-1 expression measured after 12 hrs by Western blot analysis; type: cell-based
# [21] = biological target: T1, Nuclear factor erythroid 2-related factor 2 (Homo sapiens); assay: Activation of Nrf2 in human L02 cells harboring control siRNA assessed as increase in NQO-1 mRNA expression at 10 uM measured after 10 hrs by trizol reagent based qRT-PCR analysis; type: cell-based
# Mus musculus [22] = assay: Protection against APAP-induced hepatotoxicity in C57BL/6 mouse assessed as decrease in MDA activity in liver at 10 to 40 mg/kg, ip treated 2 hrs prior to 22 hrs starvation followed by APAP challenge and measured after 6 hrs; type: functional, organism-based
# [23] = biological target: T1, Nuclear factor erythroid 2-related factor 2 (Homo sapiens); assay: Activation of Nrf2 in human L02 cells harboring control siRNA assessed as increase in GCLM mRNA expression at 10 uM measured after 10 hrs by trizol reagent based qRT-PCR analysis; type: cell-based
# L02 [24] = assay: Upregulation of NQO-1 mRNA expression in human L02 cells harboring Nrf2 siRNA at 10 uM measured after 10 hrs by trizol reagent based qRT-PCR analysis; type: functional, cell-based
# [25] = biological target: T1, Nuclear factor erythroid 2-related factor 2 (Homo sapiens); assay: Activation of Nrf2 in human L02 cells harboring control siRNA assessed as increase in NEFL2L expression at 10 uM measured after 10 hrs by Western blot analysis; type: cell-based
smiles,measurement,setting,value
COc1ccc(S(=O)(=O)N(CC(=O)O)c2ccc(N3CCC[C@H]3C(=O)O)c3ccccc23)cc1,Activity,L02 [1],inactive
same,Activity,[2],Dose-dependent effect
same,Activity,[3],Active
same,Activity,[4],Active
same,Activity,Mus musculus [5],Active
same,Activity,Mus musculus [6],Active
same,Activity,L02 [7],inactive
same,Activity,L02 [8],Non-Toxic
same,Activity,Mus musculus [9],Active
same,Activity,[10],Dose-dependent effect
same,Activity,Mus musculus [11],Active
same,Activity,L02 [12],inactive
same,Activity,L02 [13],Active
same,Activity,Mus musculus [14],Active
same,Activity,Mus musculus [15],Active
same,Activity,[16],Active
same,Activity,Mus musculus [17],Active
same,Activity,[18],Active
same,Activity,L02 [19],Active
same,Activity,[20],Dose-dependent effect
same,Activity,[21],Active
same,Activity,Mus musculus [22],Active
same,Activity,[23],Active
same,Activity,L02 [24],inactive
same,Activity,[25],Active

# Source: ChEMBL document CHEMBL4364299, “Discovery of a Potent Kelch-Like ECH-Associated Protein 1-Nuclear Factor Erythroid 2-Related Factor 2 (Keap1-Nrf2) Protein-Protein Interaction Inhibitor with Natural Proline Structure as a Cytoprotective Agent against Acetaminophen-Induced Hepatotoxicity” (J Med Chem, 2019)
